Results taken from patent US6200966A, “Compositions for inhibiting airway wall inflammation” (Amrad Operations Pty. Ltd., priority 1996, dated 2001).
“Also recorded” adds a separate entry of the source.

How the values were obtained:
[1] = test system: airway smooth muscle cells; assay: Morphological changes (cell rounding); assay type: cell-based, human
[2] = test system: cultured airway smooth muscle; details: cited from earlier work; for mitogenic activity on airway smooth muscle: various species
[3] = test system: human cultured airway smooth muscle cells; assay: DNA synthesis: [3H]-thymidine incorporation; assay type: cell-based
Procedure: (§1) Human bronchial airway smooth muscle was obtained from macroscopically normal lung resection specimens from lung transplant donors or recipients provided by the Alfred Hospital (Melbourne). Cultures were prepared as previously described in detail (Tomlinson et al., 1994). Briefly, the tissue was partially digested in Dulbecco's Modified Eagle's Medium (DMEM), [supplemented with 2 mM L-glutamine, 100 μg/ml streptomycin, 100 U/ml penicillin-G, 2 μg/ml amphotericin B, and 0.25% w/v bovine serum albumin (BSA)] containing 3 mg/ml collagenase for 30 minutes at 37° C. and approximately 0.5 g smooth muscle was further digested by a 2 hour incubation in 0.5 mg/ml elastase, followed by an 18 hour incubation in collagenase (3 mg/ml) at 37° C. Cell suspensions ere centrifuged (10 min, 100×g, 25° C.), washed three times in supplemented DMEM, resuspended in 25 ml DMEM containing 10% (v/v) heat-inactivated foetal calf serum (FCS), seeded into 25 cm^2 Falcon culture flasks and incubated (37° C., 5% CO2) for 7 to 10 days until monolayer confluence was reached. Cells were then harvested weekly by 10 min exposure to 0.5% trypsin, 1 mM EDTA and passaged at a 1:3 split ratio into 75 cm^2 Falcon culture flaskes. Cells at passage numbers 3 to 15 were used for experiments.
(§2) Cells were subcultured into 24-well plates at a 1:3 ratio and allowed to grow to monolayer confluency over a 72-96 hour period in an atmosphere of 5% CO2 in air at 37° C. The serum-containing medium was replaced with serum-free DMEM for a 24 hour period to produce growth arrest. In some experiments, the cells were pretreated with 2-methoxyestradiol 30 min before the addition of mitogen. The stimulant (mitogen) was added to the appropriate wells together with a supplement containing insulin, transferrin, and selenium (Monomed A, 1% v/v). Monomed A was added to provide progression factors which are essential for the mitogenic activity of growth factors such as thrombin, epidermal growth factor (EGF) and basic fibroblast growth factor (bFGF) (Stewart et al., 1995a). Mitogens and inhibitors were left in contact with cells from the time of addition until the end of the experiment, unless indicated otherwise. Cells were incubated for 24 hours (37° C., 5% CO2) before being pulsed with [^3 H]-thymidine (1 μCi/ml for four hours) to measure incorporation of radiolabel into newly synthesized DNA, according to out previous study (Stewart et al., 1995). Incorporation of radioactivity was determined by filtration at the end of the pulse-labelling period. The medium containing the radioactivity was aspirated and the cells were lysed by addition of 200 μl of 0.1M NaOH. The DNA was immobilised by filtration in a binding harvester (Packard Filtermate 196) on glass fibre filters (Packard, standard), which were then washed with 3×3 ml volumes of distilled water and a single 1 ml volume of 100% ethanol. The dried filters were counted in a Packard Topcount liquid scintillation counter. Protein synthesis rates were determined in experiments of analogous design to those described above, but [^3 H]-leucine replaced [^3 H]-thymidine in the pulsing incubation of 4 hours. Furthermore, in experiments to determine the effects of mitogens and 2-methoxyestradiol on the rate of protein synthesis, incubations with mitogen were carried out for a period of 48 hours. The longer duration of these experiments was required to allow sufficient time for cell division to occur.
(§3) Each treatment in an individual experiment was carried out in quadruplicate for DNA and protein synthesis experiments. Each experiment was performed in at least three different cultures obtained from three different individuals. For cell counting, single incubations were carried out in three cultures. Results are presented as grouped data from multiple cultures and are expressed as mean ±S. E. of n cultures. The degree of increment was calculated by dividing the response of treated wells by that of the control wells on the same 24-well plate.

[4] = test system: human cultured airway smooth muscle cells; assay: Protein synthesis: [3H]-leucine incorporation; assay type: cell-based; details: Table 5, unstimulated cells, mean
[5] = test system: human cultured airway smooth muscle cells; assay: Protein synthesis: [3H]-leucine incorporation; assay type: cell-based; details: for [3H]-leucine incorporation: Table 5, unstimulated cells, mean
Procedure: as §1, §2, §3

[6] = test system: endothelial cells and fibroblasts; details: actively proliferating or non-quiescent; cited from earlier work

Compound: COc1cc2c(c(OC)c1OC)-c1ccc(OC)c(=O)cc1[C@@H](NC(C)=O)CC2 [colchicine, reference compound]
- shape changes ([1]; colchicine 0.1-10 μM): similar

Compound: bFGF: human recombinant basic FGF
- mitogenic activity on airway smooth muscle [2]: most effective proliferative agents
- DNA synthesis ([3H]-thymidine incorporation) over unstimulated ([3]; 300 pM bFGF, fold series): 22.5±5.3

Compound: COc1cc2c(cc1O)CC[C@@H]1[C@@H]2CC[C@]2(C)C(=O)CC[C@@H]12 [2-methoxyestrone]
- concentration-response of enhancement of thrombin-stimulated DNA synthesis ([3]; thrombin): bell-shaped concentration-response curve
- enhancement of thrombin-stimulated DNA synthesis, 10 μM ([3]; thrombin 0.3 U/ml, 10 μM): level of enhancement declined at 10 μM
- thrombin-stimulated DNA synthesis (analogues) ([3]; thrombin 0.3 U/ml, up to 3 μM): enhanced thrombin-stimulated DNA synthesis

Compound: C[C@@H]1C[C@H]2[C@@H]3CCC4=CC(=O)C=C[C@]4(C)[C@@]3(F)[C@@H](O)C[C@]2(C)[C@@]1(O)C(=O)CO [dexamethasone]
- effect on proliferation of cultured airway smooth muscle [2]: anti-proliferative effect

Compound: C[C@]12CC[C@@H]3c4cc(O)c(O)cc4CC[C@H]3[C@@H]1CC[C@@H]2O [2-hydroxyestradiol, 1,3,5[10]-estratriene-2,3,17β-triol]
- [3H]-leucine incorporation ([4]; concentration 10.0): 51 % control
- DNA synthesis in response to FCS (1%), 3 and 10 μM ([3]; FCS 1%): inhibited DNA synthesis
- FCS (1%)-stimulated DNA synthesis, lower concentrations ([3]; FCS 1%): increased DNA synthesis
- [3H]-leucine incorporation ([5]; concentration 0.3): 107 % control
- [3H]-leucine incorporation ([5]; concentration 1.0): 94 % control
- [3H]-leucine incorporation ([5]; concentration 3.0): 56 % control

Compound: CC#C[C@]1(O)CC[C@H]2[C@@H]3CCC4=CC(=O)CCC4=C3[C@@H](c3ccc(N(C)C)cc3)C[C@@]21C [RU 486, reference compound]
- effect on inhibition of DNA synthesis by 2-methoxyestradiol ([3]; RU 486 (1 μM), 2-methoxyestradiol 3 μM, FCS 1%): no effect
- shape changes in response to colchicine or 2-methoxyestradiol ([1]; RU 486 as antagonist): reduced the shape changes

Compound: CCCCC[C@H](O)/C=C/[C@@H]1[C@@H](C/C=C\CCCC(=O)O)[C@H]2CO[C@@H]1C2 [U46619]
- mitogenic activity on airway smooth muscle [2]: only weakly active

Compound: EGF: epidermal growth factor
- mitogenic activity on airway smooth muscle [2]: most effective proliferative agents
- DNA synthesis ([3H]-thymidine incorporation) over unstimulated ([3]; 3 nM EGF, fold series): 4.5±0.7

Compound: NCCc1c[nH]cn1 [histamine]
- mitogenic activity on airway smooth muscle [2]: completely inactive

Compound: heparin [reference compound]
- effect on proliferation of cultured airway smooth muscle [2]: inhibit proliferation of airway smooth muscle cells
- proliferation of endothelial cells and fibroblasts [6]: enhance endothelial cell proliferation

Compound: C[C@]12CC[C@@H]3c4ccc(O)cc4CC[C@H]3[C@@H]1CC[C@@H]2O [17β-estradiol, 1,3,5[10]-estratriene-3, 17β-diol, reference compound]
- [3H]-leucine incorporation ([4]; concentration 1.0): 89 % control
- [3H]-leucine incorporation ([4]; concentration 10.0): 100 % control
- FCS (1%)-stimulated DNA synthesis, 10 μM ([3]; FCS 1%, 10 μM): inhibition was observed at 10 μM
- DNA synthesis in response to FCS (1%), 3 and 10 μM ([3]; FCS 1%): inhibited DNA synthesis
- FCS (1%)-stimulated DNA synthesis, lower concentrations ([3]; FCS 1%): enhanced; also recorded: increased DNA synthesis
- [3H]-leucine incorporation ([5]; concentration 0.3): 103 % control
- [3H]-leucine incorporation ([5]; concentration 3.0): 87 % control

Compound: NCCc1c[nH]c2ccc(O)cc12 [5HT, Serotonin, reference compound]
- incorporation of [3H]-thymidine by serotonin ([3]; 5HT 0.1 nM up to 10 μM): no effect
- incorporation of [3H]-leucine by serotonin ([5]; 5HT 10 nM): increased incorporation of [^3 H]-leucine

Compound: thrombin: thrombin (bovine plasma), mitogen
- mitogenic activity on airway smooth muscle [2]: effective growth factor
- DNA synthesis ([3H]-thymidine incorporation) over unstimulated ([3]; 0.3 U/ml thrombin): 8.4±3.1 fold

Compound: endothelin-1
- mitogenic activity on airway smooth muscle [2]: only weakly active
